Laboratory results taken from US20230310573A1, “Stabilized Vaccine Compositions” (priority 2020, published 2023).
Where two headings read alike, the source gives them in different places.

Columns and labels:
Type in all cases: physicochemical
[1] = target: T1, RSV pre-fusion F (preF) protein of SEQ ID NO: 10 (Human respiratory syncytial virus A, UniProt P03420, D486N/DEL108-136/I379V/M447V/N67I/P102A/S215P); test: Quantification of stabilizing compound III after UF/DF by LC-MS/MS; conditions: high excess (1:50) added before UF/DF
T1 construct: made in house
Protocol: FIG. 13. Buffer exchange using different buffers & and excess stabilizing compound III. Samples that contained stabilizing compound III, were pre-incubated for 24 h at room temperature (RT). […] Then, samples were assessed for (a) aggregation level by analytical SEC, (b) melting temperature by DSF (Day 0). Individual replicates (n=5 for slow freeze; n=3 for DSF), mean and error bars indicating the standard deviation are depicted. (c) Quantification of stabilizing compound III after UF/DF. Samples that were previously UF/DF-ed and snap frozen were used to quantify the amount of FI left after buffer exchange. Quantification was performed using a LC-MS/MS. Plotted in the left Y axis the concentration from each sample. Right Y axis corresponds to the equivalence of stabilizing compound III molecules per trimer.
Additionally, the concentration of stabilizing compound III present in the samples after UF/DF was determined by LC-MS/MS.

[2] = target: T1, RSV pre-fusion F (preF) protein of SEQ ID NO: 10
[3] = target: T2, RSV pre-fusion F protein of SEQ ID NO: 10 (Human respiratory syncytial virus A, UniProt P03420, D486N/DEL108-136/I379V/M447V/N67I/P102A/S215P); test: Thermo-stability (Tm50) of RSV pre-fusion F by Differential Scanning Fluorimetry (DSF)
T2 construct: made in house
Protocol: Thermo-stability of the RSV pre-fusion F protein of SEQ ID NO: 10 was determined by Differential Scanning Fluorimetry (DSF) by monitoring the fluorescent emission of Sypro Orange Dye (ThermoFisher Scientific) in a 96 well optical qPCR plate. Inhibitors were diluted in DMSO prior to the experiment. Same amount of DMSO was added to pre-fusion F protein without inhibitor. To each well, 5 μl of 20× Sypro orange solution was added. Upon gradual increase of the temperature, from 25° C. to 95° C. (0.015° C./s), the polypeptides unfold and the fluorescent dye binds to the exposed hydrophobic residues leading to a characteristic change in emission. The melting curves were measured using a ViiA7 real time PCR machine (Applied Biosystems). The 1st derivative of the fluorescent signal (a.u.) versus the temperature (° C.) of three individual samples (technical triplicate), as well as the averaged melting curve, were plotted with Graphpad Prism software (Dan Diego, CA, US). From the averaged melting curve, the Tm50 was deducted (lowest point on the curve). The Tm50 values represent the temperature at which 50% of the protein is unfolded and thus are a measure for the temperature stability of the polypeptides. The increase of the Tm50 is reported as difference of the Tm50 of pre-fusion F protein with stabilizing antiviral compound compared with the Tm50 of pre-fusion F protein with only addition of DMSO (i.e. without antiviral compound).
(§1) Vials were frozen to −70° C. in 24 hours under controlled conditions. Samples were subsequently thawed to RT and analyzed by analytical Size Exclusion Chromatography (SEC) to measure loss of RSV F trimer compared the sample that was kept at 4° C. In addition, the dialyzed materials with and without stabilizing compound III were evaluated in DSF to measure the melting temperature. For experimental details see example 2.
as §1, with “Each formulation (pre and post UF/DF samples) was diluted to 0.3 mg/ml. 0.75 ml of each formulation was filled in glass injection vials with rubber stopper and sealed with aluminum caps. Vials” for “Vials”, “different formulations” for “dialyzed materials”
(§2) Each formulation (pre and post dialysis samples) was diluted to 0.3 mg/ml. 0.75 ml of each formulation was filled in glass injection vials with rubber stopper and sealed with aluminum caps. Vials were slowly frozen to −70° C. in 24 hours. Samples were subsequently thawed to RT and analyzed by analytical Size Exclusion Chromatography (SEC) to measure loss of RSV F trimer compared the sample that was kept at 4° C. In addition, the different formulations with and without compound III were evaluated in DSF to measure the melting temperature. For experimental details see example 2.

[4] = target: T1, RSV pre-fusion F (preF) protein of SEQ ID NO: 10; test: Dialysis and slow freezing, trimer by analytical SEC
Protocol: as §1

[5] = target: T1, RSV pre-fusion F (preF) protein of SEQ ID NO: 10; test: UF/DF buffer exchange and slow freezing, aggregation by analytical SEC; conditions: for aggregation after buffer exchange and slow freezing: 1:50
Protocol: Buffer exchange of samples with and without stabilizing compound III was performed by ultrafiltration/diafiltration (UF/DF), using a Cogent μScale TFF system (Merck). […] Stabilizing compound III was preincubated with the sample and in one case also added to the buffer used for the UF/DF (see FIG. 12 labeled 1:3 & In Buffer). Runs were performed using Pelicon XL Biomax 50 cm2 filter cassettes. For each run, the system was flushed with MilliQ water at a crossflow of 30-50 mL/min, then the system was cleaned with NaOH 0.1M (recirculated for at least 5 min.) After this, the system was flushed again with MilliQ water until a pH of 7 was reached, followed by a 5 min. flush of the system with the desired buffer. Subsequently, the protein (50 mL) was added to the system for diafiltration against 7 diavolumes (350 mL) of the desired buffer.
as §2, with “UF/DF” for “dialysis”, “were” for “were slowly”, “hours under controlled conditions.” for “hours.”, “without stabilizing” for “without”
Stabilizing compound III was added in a 1:50 trimer:compound ratio before the UD/DF and incubated for 24 hours at […] The excess of unbound stabilizing compound III is removed during the UF/DF process.
as §2

With CS(=O)(=O)CCCn1c(Cn2c(=O)n(C3CC3)c3ccncc32)nc2cc(Br)ccc21 [Compound III, 3-[[5-bromo-1-(3-methylsulfonylpropyl)benzimidazol-2-yl]methyl]-1-cyclopropyl-imidazo[4,5-c]pyridin-2-one] the “compound bound after UF/DF (LC-MS/MS)” value [1] was ~2.6 molecules of stabilizing compound III per trimer, the “trimer content after heat stress (SEC)” value ([2]; 6 weeks at 37° C., AP1, formulation 1, formulation 5a, trimer:compound 1:3 and 1:9) was “trimer content was not changed compared to the control” and the “aggregation after heat stress (SEC)” value ([2]; 6 weeks at 47° C., AP1, formulation 1, formulation 5a, trimer:compound 1:3 and 1:9) was “aggregation was higher for the samples without compound compared to the samples with compound”. The “formation of protein aggregates in liquid phase (SEC trimer content vs 4° C. control)” value ([2]; 37° C., up to 26 weeks, different buffers, 1:3 or 1:9) was “protects from the formation of protein aggregates”, the “protection from aggregation over time, by ratio” value ([2]; 37° C., up to 26 weeks, higher ratios (1:9)) was “best protection from aggregation over time” and the “protection from aggregation at 37° C.” value ([2]; AP1, 9, 16 or 26 weeks) was “did not show protection from aggregation”. The “trimer content at 37° C.” value ([2]; Formulation 1, 9, 16 or 26 weeks) was “improved the trimer content”, the “trimer content at 37° C.” value ([2]; Formulation 5a and FB12, 9, 16 or 26 weeks) was “always improved the trimer content” and the “Tm50 (DSF) after buffer exchange” value ([3]; 1:50, Formulation 1 and 2 without PS20, AP1) was “increased the Tm50 irrespective of the buffer”. The “Tm50 (DSF) after UF/DF” value ([3]; compound in the protein and in the diavolume) was “yielded the highest Tm50”, the “Tm50 (DSF), 1:30 ratio vs 1:3 ratio” value ([3]; dialysis experiment) was “yielded a higher Tm50 than a 1:3 ratio” and the “Tm50 (DSF) vs samples without compound” value ([3]; pre- and post-dialysis samples) was “higher”. The “Tm50 (DSF) over time after dialysis” value ([3]; stored at 4° C., Day 0, 21, 84) was “remained relatively constant”, the “trimer after dialysis and slow freezing” value ([4]; 1:3 and 1:30 trimer:compound) was “higher than 90%” and the “aggregation after slow freezing” value ([4]; pre- and post-dialysis samples, 1:3 and 1:30) was “protected from aggregation”. The “aggregation after buffer exchange and subsequent slow freezing” value ([5]; 1:50 trimer:compound before UF/DF, irrespective of the buffer) was “protected from aggregation”, the “aggregation after buffer exchange and slow freezing” value ([5]; AP1 buffer) was “did not provide enough protections against aggregation” and the “aggregation after buffer exchange and slow freezing” value ([5]; Formulation 1 without PS20) was “provided protection against aggregation”. For the same molecule, the “aggregation after UF/DF and slow freezing” value ([5]; Formulation buffer 6, irrespective of compound concentration) was “protected from aggregation”.
